Results as given in ChEMBL document CHEMBL1201862, “PubChem BioAssay data set” (2004).
Calls of active or inactive are those of the source.

How the values were obtained:
[1] = system: Streptococcus sp. 'group A'; assay: growth inhibition of control SK(-) GAS strain, dose response, counter-screen for streptokinase expression inhibitor project, luminescence, kanamycin, BacTiterGlo, confirmation (AID 1900); assay type: functional, organism-based
[2] = Luminescence Cell-Based Dose Confirmation HTS to Identify Inhibitors of Platelet Dense Granule Release. [Related pubchem assays: 1663 (Primary HTS), 1678 (Summary of Project)]; assay type: functional
Streptococcus [3] = assay: Group A Streptococcus viability loss, dose response, counter-screen for streptokinase expression inhibitor project, luminescence, BacTiterGlo (AID 1915); assay type: functional, organism-based;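 further: potency for reduction of bacterial viability or growth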
[4] = Fluorescence Cell-Based Dose Response to Identify Inhibitors of Thrombin Receptor-Activating Peptide SFLLRN-Mediated P-Selectin Induction on Platelets. [Related pubchem assays: 1663 (Primary HTS), 1889 (retest at dose ), 1891 (counterscreen), 1678 (Project Summary)]; assay type: functional
[5] = molecular target: Luciferin 4-monooxygenase (Photinus pyralis, UniProt P08659); assay: firefly luciferase enzyme inhibitors, dose response, biochemical, luminescence (AID 1891)
Luciferin 4-monooxygenase, sequence (P08659 whole entry): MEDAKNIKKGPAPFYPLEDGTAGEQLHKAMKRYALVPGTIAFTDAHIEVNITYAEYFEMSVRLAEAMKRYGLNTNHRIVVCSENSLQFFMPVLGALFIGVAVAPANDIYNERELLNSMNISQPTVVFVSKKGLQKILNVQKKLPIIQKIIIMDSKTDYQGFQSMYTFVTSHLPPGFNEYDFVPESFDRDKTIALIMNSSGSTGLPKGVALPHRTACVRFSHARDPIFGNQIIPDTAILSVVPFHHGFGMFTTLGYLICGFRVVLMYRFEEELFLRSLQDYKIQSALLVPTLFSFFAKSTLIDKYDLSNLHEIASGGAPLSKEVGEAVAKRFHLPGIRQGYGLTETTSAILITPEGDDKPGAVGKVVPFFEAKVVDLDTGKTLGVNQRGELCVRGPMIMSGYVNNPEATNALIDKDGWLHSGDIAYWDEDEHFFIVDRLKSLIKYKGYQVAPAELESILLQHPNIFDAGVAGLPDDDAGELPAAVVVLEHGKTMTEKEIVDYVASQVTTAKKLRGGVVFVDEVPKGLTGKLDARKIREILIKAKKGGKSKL

Streptokinase A [6] = molecular target: T1, Streptokinase A (Streptococcus pyogenes serotype M1, UniProt P10520); assay: S. pyogenes streptokinase expression inhibitors, potency, dose response, plasminogen activation absorbance, OD405 (AID 1914); assay type: functional, Streptococcus pyogenes M1 GAS;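 further: secreted streptokinase activity via plasminogen activation per viability signal from cell pellet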
T1 sequence (P10520 whole entry): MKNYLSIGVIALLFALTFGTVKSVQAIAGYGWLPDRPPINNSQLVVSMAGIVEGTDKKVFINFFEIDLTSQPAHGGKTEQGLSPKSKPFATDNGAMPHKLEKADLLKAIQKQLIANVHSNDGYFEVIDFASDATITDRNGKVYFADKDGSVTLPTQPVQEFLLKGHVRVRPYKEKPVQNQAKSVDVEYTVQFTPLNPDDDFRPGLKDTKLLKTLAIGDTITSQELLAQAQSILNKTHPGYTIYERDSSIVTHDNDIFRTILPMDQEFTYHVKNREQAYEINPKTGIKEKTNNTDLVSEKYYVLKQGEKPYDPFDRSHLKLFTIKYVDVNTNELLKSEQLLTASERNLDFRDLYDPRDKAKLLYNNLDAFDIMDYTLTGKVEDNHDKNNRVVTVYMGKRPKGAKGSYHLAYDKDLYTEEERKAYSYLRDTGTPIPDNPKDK

[7] = molecular target: T2, Tyrosine-protein phosphatase non-receptor type 7 (Homo sapiens, UniProt P35236); assay: inhibitors of human HePTP phosphatase, […], biochemical, absorbance, leukemia target (AID 521); assay type: functional
T2 sequence (P35236 whole entry): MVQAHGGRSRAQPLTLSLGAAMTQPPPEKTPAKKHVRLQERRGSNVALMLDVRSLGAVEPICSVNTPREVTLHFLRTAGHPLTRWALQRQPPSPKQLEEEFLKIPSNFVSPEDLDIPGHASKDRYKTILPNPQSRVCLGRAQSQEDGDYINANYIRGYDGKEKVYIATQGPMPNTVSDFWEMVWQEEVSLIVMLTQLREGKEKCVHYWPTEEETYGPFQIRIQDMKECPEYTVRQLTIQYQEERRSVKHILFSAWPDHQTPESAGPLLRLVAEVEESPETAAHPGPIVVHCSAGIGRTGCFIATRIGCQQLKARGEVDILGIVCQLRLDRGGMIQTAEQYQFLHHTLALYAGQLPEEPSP

[8] = CEM21 cell cytotoxicity, dose response, cytotoxicity control, plate reader, dry powder (AID 687026); assay type: functional, cell-based
Jurkat = assay: antigen receptor-induced NF-kB inhibitors, dose response, Jurkat, luciferase reporter, luminescence, B- and T-cell (AID 489004); assay type: functional, cell-based; conditions: Homo sapiens;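 further: NF-kB luciferase reporter Jurkat cells stimulated with PMA plus ionomycin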
[9] = off-target signal loss in HeLa-CEM21 co-culture – HeLa F-luc CTL cells, cherry-picked, counter-screen for HIV-1 Env fusion inhibitor project, dose response (AID 652040); assay type: functional, cell-based;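 further: potency for signal decrease marking cytotoxic or nonspecific inhibition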
Galanin receptor type 2 = Galanin receptor type 2 (Homo sapiens, UniProt O43603); assay: Dose Response cell-based high-throughput screening assay to identify antagonists of galanin receptor 2 (GALR2). [Related pubchem assays: 828, 866 ]; assay type: functional
Galanin receptor type 2, sequence (O43603 whole entry): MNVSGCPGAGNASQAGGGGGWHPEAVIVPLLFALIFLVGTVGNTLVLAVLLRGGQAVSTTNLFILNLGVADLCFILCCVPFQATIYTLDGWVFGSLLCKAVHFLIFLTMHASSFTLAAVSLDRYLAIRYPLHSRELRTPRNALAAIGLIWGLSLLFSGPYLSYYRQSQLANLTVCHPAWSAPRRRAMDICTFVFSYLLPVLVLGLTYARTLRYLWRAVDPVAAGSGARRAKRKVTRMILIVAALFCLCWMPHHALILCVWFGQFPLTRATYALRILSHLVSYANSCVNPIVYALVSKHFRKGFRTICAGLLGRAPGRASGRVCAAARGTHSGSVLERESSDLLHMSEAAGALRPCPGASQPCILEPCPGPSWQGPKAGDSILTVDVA

[10] = HepG2 cell cytotoxicity, dose response, cytotoxicity control for Shn3 inhibitor project, CellTiter-Glo, cherry-picked (AID 624134); assay type: functional, cell-based
INS1 = assay: beta cell apoptosis inhibitors, cytokine rescue, dose response, luminescence, retest (AID 449756); assay type: functional, cell-based; conditions: Rattus norvegicus;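 further: cell death triggered by IL-1 beta plus TNF-alpha plus IFN-gamma mixture; protective hits raise ATP signal compared with cytokine alone wells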
[11] = ZM109 Env clade C HIV-1 fusion inhibitors, dose response, HeLa effector, CEM target cells, luciferase, cherry-pick (AID 652058); assay type: functional, cell-based
[12] = molecular target: COUP transcription factor 2 (Homo sapiens, UniProt P24468); assay: Luminescence-based cell-based high throughput dose response assay to identify inhibitors of COUP-TFII (NR2F2).; assay type: functional;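 further: HEK293 cells transiently cotransfected with COUP-TFII expression vector and reporter; luciferase reporter luminescence driven by COUP-TFII from the pX2-168 reporter plasmid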
COUP transcription factor 2, sequence (P24468 whole entry): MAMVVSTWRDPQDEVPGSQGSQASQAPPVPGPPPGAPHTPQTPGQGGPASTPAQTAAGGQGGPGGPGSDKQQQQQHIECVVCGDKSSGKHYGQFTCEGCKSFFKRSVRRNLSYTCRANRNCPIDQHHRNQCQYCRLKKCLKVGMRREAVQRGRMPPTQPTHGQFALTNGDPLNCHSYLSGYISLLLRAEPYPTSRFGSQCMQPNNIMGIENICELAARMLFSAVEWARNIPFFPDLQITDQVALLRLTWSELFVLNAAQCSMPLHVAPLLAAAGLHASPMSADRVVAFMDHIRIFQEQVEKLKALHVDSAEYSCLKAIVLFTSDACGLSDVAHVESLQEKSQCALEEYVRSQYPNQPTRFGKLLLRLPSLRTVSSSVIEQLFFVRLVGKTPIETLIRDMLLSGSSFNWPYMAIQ

[13] = Shn3 3'UTR reporter inhibitors, dose response, cell-based, Clone20 osteoblasts, firefly luciferase, cherry-picked (AID 624132); assay type: functional;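 further: firefly luciferase luminescence from reporter carrying the Shn3 3'UTR in osteoblasts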
[14] = control 3'UTR Renilla luciferase suppression, dose response, counter-screen for Shn3 inhibitor project, cell-based, Clone20-Shn3RL, cherry-picked (AID 624133); assay type: functional
[15] = inhibitors of HIV Env-driven cell fusion, dose response, cherry-pick (AID 652057); assay type: functional, cell-based
[16] = inhibitors of clade B AD8 Env fusion, dose response, cell-based, cherry-pick (AID 652062); assay type: functional;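 further: luciferase signal from cell-cell fusion driven by HIV-1 clade B AD8 Env; potency is for inhibitors of fusion seen as a drop in luminescence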
[17] = cytotoxicity in HEK-293T NF-kB-Luc cells, dose response, cytotoxicity control for B/T-cell NF-kB inhibitor project, cell-based, uHTS hits (AID 489019); assay type: functional;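 further: IC50 reflects cytotoxicity as loss of cell viability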
Streptococcus [18] = assay: Streptococcus pyogenes growth inhibition counter-screen, dose response, counter-screen for streptokinase expression inhibitor project, luminescence, BacTiter-Glo, strain UMAA2166 (AID 2477); assay type: functional, organism-based
Streptokinase A [19] = molecular target: T1, Streptokinase A; assay: Absorbance Microorganism-Based Dose Response Follow up to Identify Inhibitors of Streptokinase Expression. [Related pubchem assays: 1677 (Project Summary), 1915, 1914, 1902 (Retest at Dose), 1900 (Counter Screen), 1662 (Primary HTS)]; assay type: functional, Streptococcus pyogenes M1 GAS
Vero = assay: cytotoxicity of synthesized analogs in Vero cells, SAR follow-up, cytotoxicity control for West Nile virus antiviral project, cell-based, set II (AID 2402); assay type: functional; conditions: Chlorocebus sabaeus

In the case of `CC(=O)Oc1ccc(-c2nc(-c3cccnc3)no2)cc1`, the EC50 [1] is reported as 4.89 µM (active), the EC50 [2] is reported as < 701 nM (active) and the EC50 (Streptococcus [3]) is reported as 17.3 µM (active). For the same compound, the EC50 [4] was 30 µM (not active), the EC50 [5] was 8.16 µM (active) and the EC50 (Streptokinase A [6]) was > 150 µM (not active).
For `COc1ccccc1C(=O)Nc1ccccc1C(=O)N1CCCC1`, the IC50 [7] was > 100 µM (not active).
In the case of `CCOc1ccc(S(=O)(=O)NCc2ccncc2)cc1`, the AC50 [8] is reported as > 70 µM (inactive), the IC50 (Jurkat) is reported as > 80 µM (inactive) and the AC50 [9] is reported as > 70 µM (inactive). For the same compound, the IC50 (Galanin receptor type 2) was > 42 µM (not active), the AC50 [10] was 603 nM (active) and the AC50 (INS1) was 1.08 µM (active). For the same compound, the AC50 [11] was < 260 nM (active), the IC50 [12] was 2.27 µM (active) and the AC50 [13] was 261 nM (active). For the same compound, the AC50 [14] was 10.5 µM (active), the AC50 [15] was 1.36 µM (active) and the AC50 [16] was 2.72 µM (active). For the same compound, the IC50 [17] was > 80 µM (inactive).
With `CCCOc1ccc(-c2nc(Oc3ccccc3)c3ccccc3n2)cc1` the EC50 (Streptococcus [18]) was > 500 µM (not active) and the EC50 (Streptokinase A [19]) was 71.6 µM (active).
For `COc1ccc(-c2csc(N(C)C(=O)c3ccccc3Cl)n2)cc1`, the CC50 (Vero) was > 50 µM (active).
